Test results taken from the kinase profiling compilation of Christmann-Franck et al. (2016).

Assays:
WEE1 (human) = WEE1 (human) (UniProt P30291); test: ELISA
LCK (human) = LCK (human) (UniProt P06239); test: Caliper, Mobility shift assay off-chip
EGFR (human) = EGFR (human) (UniProt P00533); test: Caliper, Mobility shift assay off-chip
ABL1 (human) = ABL1 (human) (UniProt P00519); test: Caliper, Mobility shift assay off-chip
Sequence of ABL1 (human) (P00519 whole entry, looked up): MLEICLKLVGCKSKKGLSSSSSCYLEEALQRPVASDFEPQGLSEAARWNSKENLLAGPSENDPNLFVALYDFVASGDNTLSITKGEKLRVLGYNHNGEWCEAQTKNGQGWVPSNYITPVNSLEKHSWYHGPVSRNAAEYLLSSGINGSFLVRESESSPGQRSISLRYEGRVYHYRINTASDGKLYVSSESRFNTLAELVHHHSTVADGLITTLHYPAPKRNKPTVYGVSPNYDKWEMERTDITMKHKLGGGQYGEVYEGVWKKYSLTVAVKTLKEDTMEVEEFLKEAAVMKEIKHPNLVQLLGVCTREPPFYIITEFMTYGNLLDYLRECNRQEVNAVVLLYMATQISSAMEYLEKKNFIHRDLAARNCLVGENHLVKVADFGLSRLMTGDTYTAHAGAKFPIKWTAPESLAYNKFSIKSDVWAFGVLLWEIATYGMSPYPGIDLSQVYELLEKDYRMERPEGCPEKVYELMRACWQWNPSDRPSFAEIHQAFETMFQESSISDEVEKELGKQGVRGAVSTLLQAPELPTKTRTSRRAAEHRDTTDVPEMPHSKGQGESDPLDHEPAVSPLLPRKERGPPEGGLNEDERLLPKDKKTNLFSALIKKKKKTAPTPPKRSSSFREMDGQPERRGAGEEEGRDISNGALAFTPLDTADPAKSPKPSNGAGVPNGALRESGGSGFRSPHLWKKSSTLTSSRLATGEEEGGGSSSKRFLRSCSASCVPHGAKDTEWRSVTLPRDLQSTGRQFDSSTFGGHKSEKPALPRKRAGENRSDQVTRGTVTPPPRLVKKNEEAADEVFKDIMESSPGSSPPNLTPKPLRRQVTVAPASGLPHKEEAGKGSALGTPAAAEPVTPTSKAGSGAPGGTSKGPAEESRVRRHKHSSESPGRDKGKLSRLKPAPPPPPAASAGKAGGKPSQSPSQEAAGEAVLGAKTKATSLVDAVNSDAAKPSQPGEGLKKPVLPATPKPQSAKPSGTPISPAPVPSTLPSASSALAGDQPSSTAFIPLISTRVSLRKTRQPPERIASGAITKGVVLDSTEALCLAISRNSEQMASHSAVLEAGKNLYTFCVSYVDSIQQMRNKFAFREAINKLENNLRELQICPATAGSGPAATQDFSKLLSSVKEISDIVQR

Sequence of WEE1 (human) (P30291 whole entry, looked up): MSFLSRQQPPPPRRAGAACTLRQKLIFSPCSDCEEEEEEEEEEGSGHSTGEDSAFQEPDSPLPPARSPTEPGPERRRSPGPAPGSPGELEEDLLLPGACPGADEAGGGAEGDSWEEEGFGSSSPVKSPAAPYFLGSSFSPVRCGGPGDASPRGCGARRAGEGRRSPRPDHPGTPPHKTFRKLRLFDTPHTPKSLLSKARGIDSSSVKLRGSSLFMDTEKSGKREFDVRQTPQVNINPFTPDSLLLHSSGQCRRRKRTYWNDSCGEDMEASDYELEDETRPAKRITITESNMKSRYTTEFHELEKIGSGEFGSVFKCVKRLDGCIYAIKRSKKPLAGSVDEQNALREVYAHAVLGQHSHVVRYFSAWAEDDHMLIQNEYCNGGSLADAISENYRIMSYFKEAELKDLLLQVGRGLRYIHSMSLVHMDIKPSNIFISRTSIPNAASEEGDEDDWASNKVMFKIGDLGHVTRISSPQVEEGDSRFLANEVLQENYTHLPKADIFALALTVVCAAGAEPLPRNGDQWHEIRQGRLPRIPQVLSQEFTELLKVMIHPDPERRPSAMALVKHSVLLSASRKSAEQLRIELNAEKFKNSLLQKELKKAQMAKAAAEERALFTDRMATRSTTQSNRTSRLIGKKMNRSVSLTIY
Sequence of LCK (human) (P06239 whole entry, looked up): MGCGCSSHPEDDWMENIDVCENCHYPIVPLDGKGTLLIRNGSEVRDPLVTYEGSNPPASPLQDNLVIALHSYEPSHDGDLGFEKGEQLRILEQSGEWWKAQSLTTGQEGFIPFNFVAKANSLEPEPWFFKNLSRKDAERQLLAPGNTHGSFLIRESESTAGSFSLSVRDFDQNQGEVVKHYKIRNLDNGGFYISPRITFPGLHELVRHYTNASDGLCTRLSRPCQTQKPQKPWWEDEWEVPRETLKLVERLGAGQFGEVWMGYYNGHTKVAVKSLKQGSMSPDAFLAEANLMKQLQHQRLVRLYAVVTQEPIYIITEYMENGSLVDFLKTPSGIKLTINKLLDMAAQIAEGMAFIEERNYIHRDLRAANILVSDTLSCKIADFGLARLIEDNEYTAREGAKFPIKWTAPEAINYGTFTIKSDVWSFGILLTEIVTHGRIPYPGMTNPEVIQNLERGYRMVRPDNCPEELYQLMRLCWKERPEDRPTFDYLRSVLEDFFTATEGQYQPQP
Sequence of EGFR (human) (P00533 whole entry, looked up): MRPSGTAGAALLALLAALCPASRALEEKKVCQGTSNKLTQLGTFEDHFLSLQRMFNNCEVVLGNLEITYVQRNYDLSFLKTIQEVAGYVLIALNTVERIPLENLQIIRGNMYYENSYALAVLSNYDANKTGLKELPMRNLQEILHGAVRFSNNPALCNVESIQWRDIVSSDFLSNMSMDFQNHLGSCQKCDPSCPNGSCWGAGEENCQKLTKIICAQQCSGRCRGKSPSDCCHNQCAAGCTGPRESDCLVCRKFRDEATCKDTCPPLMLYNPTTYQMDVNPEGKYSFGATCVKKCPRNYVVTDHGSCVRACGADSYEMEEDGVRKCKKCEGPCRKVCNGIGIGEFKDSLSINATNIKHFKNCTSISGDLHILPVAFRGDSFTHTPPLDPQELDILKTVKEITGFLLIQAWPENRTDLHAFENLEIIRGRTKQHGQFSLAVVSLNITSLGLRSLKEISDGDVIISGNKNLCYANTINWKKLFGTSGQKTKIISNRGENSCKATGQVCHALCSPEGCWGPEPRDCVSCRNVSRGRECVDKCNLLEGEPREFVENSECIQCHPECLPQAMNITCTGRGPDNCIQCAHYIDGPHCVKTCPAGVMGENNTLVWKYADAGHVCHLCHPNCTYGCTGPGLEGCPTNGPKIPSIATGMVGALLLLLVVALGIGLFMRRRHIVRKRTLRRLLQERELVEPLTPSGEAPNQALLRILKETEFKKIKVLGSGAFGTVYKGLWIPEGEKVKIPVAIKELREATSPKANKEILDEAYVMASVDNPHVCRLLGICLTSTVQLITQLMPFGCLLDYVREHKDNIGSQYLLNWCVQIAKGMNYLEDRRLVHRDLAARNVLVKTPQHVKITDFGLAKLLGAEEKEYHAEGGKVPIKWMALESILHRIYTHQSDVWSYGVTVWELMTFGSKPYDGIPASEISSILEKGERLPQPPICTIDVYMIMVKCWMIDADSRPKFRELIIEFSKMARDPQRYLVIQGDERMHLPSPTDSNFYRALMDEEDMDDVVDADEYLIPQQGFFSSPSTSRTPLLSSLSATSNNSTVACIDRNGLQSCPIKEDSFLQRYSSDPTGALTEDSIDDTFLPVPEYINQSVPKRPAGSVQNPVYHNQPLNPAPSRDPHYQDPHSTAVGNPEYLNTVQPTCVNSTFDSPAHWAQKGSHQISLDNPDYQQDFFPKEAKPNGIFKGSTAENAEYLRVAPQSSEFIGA

Row | Structure (SMILES) | inhibition (WEE1 (human); compound 0.02 µM) [%] | inhibition (WEE1 (human); compound 0.2 µM) [%] | inhibition (LCK (human); compound 0.02 µM) [%] | inhibition (LCK (human); compound 0.2 µM) [%] | inhibition (EGFR (human); compound 0.02 µM) [%] | inhibition (EGFR (human); compound 0.2 µM) [%] | inhibition (ABL1 (human); compound 0.02 µM) [%] | inhibition (ABL1 (human); compound 0.2 µM) [%] | inhibition (WEE1 (human); compound 4.0 µM) [%] | inhibition (WEE1 (human); compound 0.001 µM) [%]
1 | COc1cc2c(Oc3ccc4[nH]c(C)cc4c3F)ncnc2cc1OCCCN1CCCC1 | -5.4 | 0.5 | 23 | 72.7 | 30.6 | 78.4 | 24.1 | 58.9 | – | –
2 | CNC(=O)c1cc(Oc2ccc(NC(=O)Nc3ccc(Cl)c(C(F)(F)F)c3)cc2)ccn1 | -7.4 | -2 | – | – | – | – | – | – | – | –
3 | CCN(CC)CCNC(=O)c1c(C)[nH]c(/C=C2\C(=O)Nc3ccc(F)cc32)c1C | – | 10 | – | – | – | – | – | – | 65.3 | –
4 | Cc1ccc(Nc2nccc(N(C)c3ccc4c(C)n(C)nc4c3)n2)cc1S(N)(=O)=O | -3.7 | -3.5 | 7 | 44.1 | – | -1.3 | – | – | – | –
5 | CNC(=O)c1ccccc1Sc1ccc2c(/C=C/c3ccccn3)n[nH]c2c1 | 1.5 | – | – | – | – | – | – | – | – | -2.1
